Test results as given in article PMC7155171, “Probing the Open Global Health Chemical Diversity Library for Multistage-Active Starting Points for Next-Generation Antimalarials” (ACS Infectious Diseases, 2020).
Read-outs that look alike come from different tables or passages of the source.

Assays:
P. falciparum Dd2 = assay: SYBR green I asexual blood stage proliferation assay (96 h); type: cell-based, Plasmodium falciparum; details: Plasmodium falciparum, DD2, 11-pt dose response, 96hr
[1] = test system: P. falciparum Dd2 (PfLuc) line expressing firefly luciferase, asexual blood stage; assay: microbe, parasite or virus in culture; type: cell-based, Plasmodium falciparum; details: Plasmodium falciparum
[2] = Sybr Green I, read-out: CDD P. falciparum Sybr Green I ABS 11-pt Reconfirmation Dose Response (96hr): IC50
[3] = Sybr Green I, read-out: CDD P. falciparum Sybr Green I ABS 11-pt Reconfirmation Dose Response (96hr): Maximum inhibition (%)
[4] = DD2, read-out: CDD P. falciparum Luciferase ABS 11-pt Reconfirmation Dose Response (48hr): IC50 (μM), 11-pt dose response, 48hr
[5] = DD2, 8-pt dose response, 96hr, read-out: CDD P. falciparum Luciferase ABS 8-pt Reconfirmation Dose Response (96hr): IC50
[6] = DD2, 8-pt dose response, 96hr, read-out: CDD P. falciparum Luciferase ABS 8-pt Reconfirmation Dose Response (96hr): Maximum inhibition (%)
[7] = DD2, 11-pt dose response, 48hr, read-out: CDD P. falciparum Luciferase ABS 11-pt Reconfirmation Dose Response (48hr): Maximum inhibition (%)
[8] = DD2, 11-pt dose response, 96hr, read-out: CDD P. falciparum Luciferase ABS 11-pt Reconfirmation Dose Response (96hr): IC50
[9] = DD2, 11-pt dose response, 96hr, read-out: CDD P. falciparum Luciferase ABS 11-pt Reconfirmation Dose Response (96hr): Maximum inhibition (%)
[10] = read-out: P. falciparum Sybr Green I ABS 11-pt Reconfirmation Dose Response (96hr): IC50
[11] = read-out: P. falciparum Sybr Green I ABS 11-pt Reconfirmation Dose Response (96hr): Maximum inhibition (%)
[12] = DD2, read-out: P. falciparum Luciferase ABS 11-pt Reconfirmation Dose Response (48hr): IC50, 11-pt dose response, 48hr
[13] = DD2, 8-pt dose response, 96hr, read-out: P. falciparum Luciferase ABS 8-pt Reconfirmation Dose Response (96hr): IC50
[14] = DD2, 11-pt dose response, 48hr, read-out: P. falciparum Luciferase ABS 11-pt Reconfirmation Dose Response (48hr): Maximum inhibition (%)
[15] = DD2, 11-pt dose response, 96hr, read-out: P. falciparum Luciferase ABS 11-pt Reconfirmation Dose Response (96hr): IC50
[16] = DD2, 11-pt dose response, 96hr, read-out: P. falciparum Luciferase ABS 11-pt Reconfirmation Dose Response (96hr): Maximum inhibition (%)

Structure (SMILES) | IC50 (P. falciparum Dd2; [2]) | Emax (P. falciparum Dd2; [3]) | IC50 [1, 4] | IC50 [1, 5] | Emax [1, 6] | Emax [1, 7] | IC50 [1, 8] | Emax [1, 9] | IC50 (P. falciparum Dd2; [10]) | Emax (P. falciparum Dd2; [11]) | IC50 [1, 12] | IC50 [1, 13] | Emax [1, 14] | IC50 [1, 15] | Emax [1, 16] | Emax ([1]; DD2, 8-pt dose response, 96hr, read-out: P. falciparum Luciferase ABS 8-pt Reconfirmation Dose Response (96hr): Maximum inhibition (%))
COc1cccc(CN(C)Cc2[nH]c3ccccc3c2C)c1O [DDD01247848] | 1050 nM | 98% | 1.95 µM | 0.44 µM | 94.4% | 95.9% | 0.908 µM | 98.6% |  |  |  |  |  |  |  | 
Cc1ccsc1CN(Cc1cccnc1)C1CC(C)(C)NC(C)(C)C1 [DDD01060982] | > 4160 nM | 70.5% | 4.19 µM | 1.04 µM | 88.1% | 61.9% | 1.59 µM | 95.6% |  |  |  |  |  |  |  | 
Fc1ccc(CN2CCC3(CC2)CCN(Cc2nccs2)CC3)cc1 [DDD01031337] | > 1390 nM | 71.7% | 8.85 µM | 0.78 µM | 88.8% | 69.4% | 1.46 µM | 87.9% |  |  |  |  |  |  |  | 
Cc1nc(-c2ccc(F)c(F)c2)cc(C2CCNCC2)n1 [DDD01058356] | 2100 nM | 68.9% | > 12.5 µM | 0.84 µM | 88.2% | 44.3% | 2.02 µM | 86.7% |  |  |  |  |  |  |  | 
CC(NCCc1nccn1Cc1ccccc1)c1ccsc1 (stereo not shown) [DDD01065612] | 960 nM | 77.4% | 4.05 µM | 1.09 µM | 87.3% | 68.1% | 0.666 µM | 88.3% |  |  |  |  |  |  |  | 
CNC(=O)CCN(C)CC1(c2ccc(Br)cc2)CC1 [DDD01064880] | 6590 nM | 73.3% | 5.21 µM | 0.54 µM |  | 64.4% | 4.63 µM | 88.9% |  |  |  |  |  |  |  | 
Cc1cccc(C)c1Nc1noc2c1CN(C(=O)c1c[nH]nc1C)CC2 [DDD01056871] | 2520 nM |  | 1.9 µM | 0.77 µM |  | 87.7% | 1.38 µM | 96.9% |  |  |  |  |  |  |  | 
Cc1ccc(C)c(OCCNC(=O)[C@@H]2CCCCN2)c1 [DDD01252936] | 7600 nM |  | 6.36 µM | 0.37 µM | 89.3% | 74.3% | 1.17 µM | 87.5% |  |  |  |  |  |  |  | 
Cc1ccc(CN(CCN(C)C)Cc2c(C)nc3sccn23)o1 [DDD01056924] |  |  |  |  |  |  |  |  | > 4160 nM | 52.1% | > 12.5 µM | 1.82 µM | 65.3% | 2.43 µM | 88.8% | 
CCN1CC(c2ccccc2)CC2(CCN(Cc3ncc[nH]3)CC2)C1 (stereo not shown) [DDD01246660] | 3390 nM | 89.2% | 7.46 µM | 0.79 µM | 90.9% | 59% | 3.35 µM | 85.5% |  |  |  |  |  |  |  | 
CN1CC[C@H](N(Cc2ccccc2)Cc2ccccc2)C[C@H](O)C1 [DDD01026217] | 7310 nM | 73.4% | > 4.16 µM | 0.91 µM | 80.7% | 69.3% | > 4.16 µM | 93.7% |  |  |  |  |  |  |  | 
CN1CCN(Cc2ccccc2Oc2nccc3occc23)CC1 [DDD01252026] | > 4160 nM | 63.4% | > 12.5 µM | 0.71 µM | 83.5% | 26.1% | 2.91 µM | 85.7% |  |  |  |  |  |  |  | 
Cc1c(C)n(CC(O)CN2CCN(CCO)CC2)c2c(Cl)cccc12 (stereo not shown) [DDD01034970] |  |  |  |  |  |  |  |  | > 4160 nM | 73.1% | 3.79 µM | 1.15 µM | 86.8% | 2.24 µM | 95.9% | 85.4%
Cc1ccc(CN2CCC3(CC2)CCN(Cc2ccco2)CC3)cc1 [DDD01031591] | 6720 nM | 84.1% | 7.27 µM | 0.77 µM |  | 74.1% | 0.938 µM | 94.4% |  |  |  |  |  |  |  | 
